Reference: BindingDB's records for doi:10.1021/jm030084x (University of Illinois At Urbana-Champaign, 2003)

Target: farnesyl diphosphate synthase (Leishmania major)
Test: Inhibitory activity against Leishmania major Farnesyl-diphosphatesynthase (FPP synthase)

| IC50 [µM] | Compound |
| --- | --- |
| > 100 | O=P(O)(O)C(Nc1ccc(Cl)nc1)P(=O)(O)O [[(6-Chloro-pyridin-3-ylamino)-phosphono-methyl]-phosphonic acid] |
| > 100 | Cc1cc(C)nc(NC(P(=O)(O)O)P(=O)(O)O)c1 [(4,6-dimethyl-2-pyridinyl)-aminomethylene-1,1-bisphosphonate] |
